Where two headings read alike, the source gives them in different places.

One series relates to U87 GBM. The series can be described thus: GBM agent potency in U87 cells. Type of series: cell-based. An excerpt:
UCN-01 potency. The potency of UCN-01 markedly exceeds that of standard GBM agents in GBM U87 cells (Table 1), and it engages a unique pattern of signaling pathways to drive apoptosis. The ability of UCN-01 at noncytotoxic doses to abrogate G2 arrest is evident in p53 dysregulated cells. p53 is mutated in about 35% of primary GBM and 65% of secondary GBM. p53 pathway dysregulation occurs in 86% of GBM.

Series [1] in a line: In vitro unbound fraction of UCN-01 in human plasma. Format: in vitro ADME. Also on record: dose or concentration left out as unconfirmed. An excerpt: (§1) UCN-01 pharmacokinetics and nanoliposomes. Free UCN-01 is instantly bound by human alpha-1 acid glycoprotein (AAG) plasma protein with extremely high affinity and remains in circulation for remarkably extended periods of time. […] Unfortunately this greatly diminishes the availability of free (active) compound so that the in vivo effectiveness of UCN-01 is compromised even when it enters tumor tissue when bound to AAG the UCN-01 molecule is not bioavailable. Increasing the UCN-01 dose to sufficiently saturate AAG in the plasma elevates the risk of toxicity.

Series [2] is described as follows: In vitro unbound fraction of UCN-01 in mouse plasma. Format: in vitro ADME. Also on record: dose or concentration left out as unconfirmed.
From the text: as §1

A short description of series [3]: In vitro unbound fraction of UCN-01 in rat plasma. Format: in vitro ADME. Also on record: dose or concentration left out as unconfirmed.
From the text: as §1

A short description of series [4]: In vitro unbound fraction of UCN-01 in dog plasma. Also on record: dose or concentration left out as unconfirmed. Format: in vitro ADME.
From the text: as §1

For series [5], the system named is GBM patient cancer stem cell derived GBM tumorsphere lines. The series can be described thus: GBM cytotoxicity, MTT assay in tumorsphere lines. Format: cell-based. To be noted: 8 GBM tumorsphere lines, almost all cell lines. As to the method: GBM cytotoxicity with UCN-01. 8 different GBM patient cancer stem cell derived GBM tumorsphere lines were incubated with a range of UCN-01 doses. The percent viable cells were determined with the MTT assay.
A general note: Formazan colour is commonly taken as a measure of viable cells.

For series [6], the system named is radioresistant U87 GBM cells. The series can be described thus: GBM radiosensitization in culture. Format: cell-based. To be noted: mildly cytotoxic nM levels, clinically relevant radiation doses. Here is the method:
Bar graph of radiation dose and UCN-01 dose (nM) vs percent viable U87 GBM cells. Red columns for 0 Gy and purple for 5 Gy—a clinically relevant dose.
GBM radiosensitization with low doses of the staralog UCN-01. […] As a precursor to studies with a range of staralogs, extensive model investigations with the class parent staralog model system, STS were performed.

Another series deals with U87 glioblastoma cells. As to the kind of experiment: Potentiation of temozolomide. Format: cell-based.
A further series relates to phosphorylation of Akt. The series can be described thus: Western blot for Akt, P-Akt, cleaved PARP. Type of series: cell-based. The settings on record: U87 cells. An excerpt:
FIG. 5A: Western blot analysis for Akt, P-Akt, cleaved PARP. […] Representative blot from two independent experiments is shown.
For orientation: In western blotting, separated proteins are transferred to a membrane and probed.

For another series, the system named is U87 cells. As to the kind of experiment: FACS analysis for DNA content. Type of series: cell-based. The settings on record: treated cells. Background: Flow cytometry measures light scatter and fluorescence of single cells or particles in a stream.
Another series concerns U87 flank tumors. As to the kind of experiment: U87 flank tumor growth in mice. Type of series: in vivo, nu/nu mice.
Series [7] is described as follows: Toxicity in mice: body weight and liver enzymes. The settings on record: mice bearing U87 GBM flank tumors. Type of series: in vivo. An excerpt: Weight declined with STS but not PBS or LSTS. Bottom panel is bar graph depicting liver enzymes ALT/AST before and after treatment. For free STS the post treatment levels were flagged as abnormal (stars). ALT/AST enzyme levels were normal with empty liposomes (control) and LSTS. Reference levels shown by dashed lines.

One may read the IC50 as the concentration at which inhibition is half-maximal. `CN[C@@H]1C[C@H]2O[C@@](C)([C@@H]1OC)n1c3ccccc3c3c4c(c5c6ccccc6n2c5c31)C(=O)N[C@H]4O` [UCN-01, 7-hydroxystaurosporine]: in the series with U87 GBM, half-maximal inhibition (IC50) was put at 50 nM. The Unbound fraction % in [1] is given as under 0.02%; in series [2], 1.14%; in series [3], 1.75%; in [4], 0.49%. Also, the IC50 values result in series [5] is reported as “low nanomolar (nM) range”. Moreover, in series [6], the sensitization to radiation entry is recorded as “able to sensitize”. Further, the “potentiation of temozolomide (TMZ)” value in the series with U87 glioblastoma cells is listed as “potentiated temozolomide (TMZ)”.
Consider `COc1cccc2c1C(=O)c1c(O)c3c(c(O)c1C2=O)C[C@@](O)(C(=O)CO)C[C@@H]3O[C@H]1C[C@H](N)[C@H](O)[C@H](C)O1` [Doxorubicin], for which, in the series with U87 GBM (Homo sapiens, U-87 MG), the 50% inhibitory concentration (IC50) is 1000 nM.
Compound `O=c1[nH]cc(F)c(=O)[nH]1` [Compound 5-FU, 5-FU] yielded a 50% inhibitory concentration (IC50) with U87 GBM of 2500 nM.
`CN[C@@H]1C[C@H]2O[C@@](C)([C@@H]1OC)n1c3ccccc3c3c4c(c5c6ccccc6n2c5c31)C(=O)NC4` [STS, Staurosporine]: in the series on phosphorylation of Akt, the PARP cleavage entry is reported as “stimulated caspase 3 dependent PARP cleavage” and the phospho-Akt result is listed as “suppression of phospho-Akt”. Besides, the “DNA content (FACS)” value in the series on U87 cells is listed as “G0 shift consistent with apoptosis”. The “in vivo GBM proliferation (Ki-67)” value in the series with U87 flank tumors is given as “did not”. Further, in series [7], the body weight entry is given as “reduction in body weight”.
As to `Cn1nnc2c(C(N)=O)ncn2c1=O` [Temozolomide], in the series with U87 GBM (Homo sapiens, U-87 MG), the IC50 was found to be 50000 nM.
In turn, `O=NN(CCCl)C(=O)NCCCl` [BCNU] displayed an IC50 with U87 GBM of 60000 nM.

The record behind these values is US20250215015A1 (THE REGENTS OF THE UNIVERSITY OF CALIFORNIA, priority 2022, published 2025).
